Data taken from patent publication US12617783B2, “Heterocyclic GLP-1R agonists” (BIOMEA FUSION, INC., priority 2024, dated 2026).
Where two headings read alike, the source gives them in different places.

Molecular target: T1, human GLP-1R (Homo sapiens, UniProt P43220)
T1 construct: host or cells: HEK293
Experiment: GLP-1R cAMP assay (Example B1a, HTRF, 30 min at room temperature)
Assay type: cell-based
How it was run: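 Competitive HTRF read-out of cAMP after 30 min room-temperature stimulation, BETP absent, of human GLP-1R-HEK293 cells (1,000/well) in HEPES buffer with 500 μM IBMX and 0.1% BSA. Activation normalised to GLP-1(7-37) positive control. EC50 from 4-parameter non-linear regression.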

[1] = cAMP accumulation in HEK293 expressing human GLP-1R, no BETP, 30 min room temperature (Method B1a, compounds ID 1-609), Table 1, read-out: EC50

T1 sequence (P43220 24-463): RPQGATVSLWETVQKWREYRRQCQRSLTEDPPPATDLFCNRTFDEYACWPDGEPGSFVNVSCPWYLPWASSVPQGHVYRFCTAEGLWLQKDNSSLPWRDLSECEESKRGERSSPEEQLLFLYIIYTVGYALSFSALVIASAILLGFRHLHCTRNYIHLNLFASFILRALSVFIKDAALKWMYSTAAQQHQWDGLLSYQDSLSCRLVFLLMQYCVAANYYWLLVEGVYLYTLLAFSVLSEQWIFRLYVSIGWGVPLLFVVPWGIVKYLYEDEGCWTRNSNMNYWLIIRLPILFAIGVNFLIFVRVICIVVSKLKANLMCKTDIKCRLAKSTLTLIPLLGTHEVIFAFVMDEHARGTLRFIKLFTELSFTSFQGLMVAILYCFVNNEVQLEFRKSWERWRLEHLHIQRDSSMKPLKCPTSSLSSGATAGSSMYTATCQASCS

## Cc1cc(-n2nc3c(c2-n2ccn(-c4ccc5c(cnn5C)c4F)c2=O)[C@@H]2CC[C@H](C3)N2C(=O)c2cc3cc([C@H]4CCOC(C)(C)C4)ccc3n2[C@@]2(C(=O)NS(=O)(=O)C3CC3)C[C@@H]2C)cc(C)c1F [Compound 204, cis-(1S,2S)-N-cyclopropylsulfonyl-1-[5-[(4S)-2,2-dimethyltetrahydropyran-4-yl]-2-[(1S,8R)-4-(4-fluoro-3,5-dimethyl-phenyl)-3-[3-(4-fluoro-1-methyl-indazol-5-yl)-2-oxo-imidazol-1-yl]-4,5,11-triazatricyclo[6.2.1.02,6]undeca-2,5-diene-11-carbonyl]indol-1-yl]-2-methyl-cyclopropanecarboxamide]
[1]
  EC50: > 10 µM

## Cc1cc(-n2nc3c(c2-n2ccn(-c4ccc5c(cnn5C)c4F)c2=O)[C@@H]2CC[C@H]([C@H]3F)N2C(=O)c2cc3cc([C@H]4CCOC(C)(C)C4)ccc3n2[C@@]2(c3noc(=O)[nH]3)C[C@@H]2C)cc(C)c1F [Compound 512, 3-[(1S,2S)-1-[5-[(4S)-2,2-dimethyltetrahydropyran-4-yl]-2-[(1S,7R,8R)-7-fluoro-4-(4-fluoro-3,5-dimethyl-phenyl)-3-[3-(4-fluoro-1-methyl-indazol-5-yl)-2-oxo-imidazol-1-yl]-4,5,11-triazatricyclo[6.2.1.02,6]undeca-2,5-diene-11-carbonyl]indol-1-yl]-2-methyl-cyclopropyl]-4H-1,2,4-oxadiazol-5-one]
Table 1d, potency ratio of stereoisomer pair (less potent / more potent isomer)
  EC50 Ratio: >83
Table 1d, stereoisomer pairs, read-out: EC50
  EC50: 0.226 µM
[1]
  EC50: 0.226 µM
Text to Table 1d, bridge atoms configured into the plane or away from the reader, read-out: potency (EC50)
  EC50: < 1 µM

## Cc1cc(-n2nc3c(c2-n2ccn(-c4ccc5c(cnn5C)c4F)c2=O)[C@@H]2CC[C@H](C3)N2C(=O)c2cc3cc(C4CCOC(C)(C)C4)ncc3n2[C@@]2(c3noc(=O)[nH]3)C[C@@H]2C)cc(C)c1F (stereo partly drawn) [Compound 209, 3-((1S,2S)-1-(5-(2,2-dimethyltetrahydro-2H-pyran-4-yl)-2-((4S,7R)-3-(3-(4-fluoro-1-methyl-1H-indazol-5-yl)-2-oxo-2,3-dihydro-1H-imidazol-1-yl)-2-(4-fluoro-3,5-dimethylphenyl)-2,4,5,6,7,8-hexahydro-4,7-epiminocyclohepta [c]pyrazole-9-carbonyl)-1H-pyrrolo[2,3-c]pyridin-1-yl)-2-methylcyclopropyl)-1,2,4-oxadiazol-5 (4H)-one]
[1]
  EC50: 0.117 µM

## Cc1cc(-n2nc3c(c2-n2ccn(-c4ccc5nn(CCN6CCOCC6)cc5c4F)c2=O)[C@@H]2CC[C@H](C3)N2C(=O)c2cc3cc([C@H]4CCOC(C)(C)C4)ccc3n2[C@@]2(c3noc(=O)[nH]3)C[C@@H]2C)cc(C)c1F [Compound 131, 3-[(1S,2S)-1-[5-[(4S)-2,2-dimethyltetrahydropyran-4-yl]-2-[(1S,8R)-4-(4-fluoro-3,5-dimethyl-phenyl)-3-[3-[4-fluoro-2-(2-morpholinoethyl)indazol-5-yl]-2-oxo-imidazol-1-yl]-4,5,11-triazatricyclo[6.2.1.02,6]undeca-2,5-diene-11-carbonyl]indol-1-yl]-2-methyl-cyclopropyl]-4H-1,2,4-oxadiazol-5-one]
[1]
  EC50: > 10 µM

## Cc1cc(-n2nc3c(c2-n2ccn(-c4ccc5c(cnn5C)c4F)c2=O)[C@@H]2CC[C@H](C3)N2S(=O)(=O)c2cc3cc([C@H]4CCOC(C)(C)C4)ccc3n2[C@@]2(c3noc(=O)[nH]3)C[C@@H]2C)cc(C)c1F [Compound 525, 3-[(1S,2S)-1-[5-[(4S)-2,2-dimethyltetrahydropyran-4-yl]-2-[[(1S,8R)-4-(4-fluoro-3,5-dimethyl-phenyl)-3-[3-(4-fluoro-1-methyl-indazol-5-yl)-2-oxo-imidazol-1-yl]-4,5,11-triazatricyclo[6.2.1.02,6]undeca-2,5-dien-11-yl]sulfonyl]indol-1-yl]-2-methyl-cyclopropyl]-4H-1,2,4-oxadiazol-5-one]
[1]
  EC50: 0.0584 µM
